Assay results reported in US7638554B2, “Flavanoids as chemotherapeutic, chemopreventive, and antiangiogenic agents” (SRI International, priority 2002, dated 2009).
Read-outs that look alike come from different tables or passages of the source.

Key:
[1] = test system: MCF-7 human breast cancer xenografts; assay: MCF-7 human breast cancer xenografts in nude mice, i.p. administration; assay type: in vivo
Description: To evaluate the in vivo activity of novel compound SR 13179 against breast cancer, the compound was administered to female BALB/c nude mice that had been implanted with breast cancer cells. In this experiment, MCF-7 human breast cancer cells (2.5×10^6 cells) were implanted subcutaneously in both flanks of each mouse. Two days after cell inoculation, one estradiol pellet (10 μg/pellet) was implanted into each mouse by subcutaneous implantation. When tumor volumes reached 100 mm^3 (Day 0), SR 13179 was administered at a dose of 12.5 mg/kg, 25 mg/kg and 50 mg/kg intraperitoneally (i.p.) once a day, as a suspension in 0.5% hydroxypropyl cellulose. Body weights and tumor volumes were measured twice a week for 14 days. The tumor volume was expressed as % of initial tumor size which was designated as 100% on Day 0.

[2] = test system: MDA-MB-231 breast cancer cells; assay: Boyden-chamber Matrigel invasion/migration assay, MDA-MB-231; assay type: cell-based, human
Description: Cell Culture. MCF-10CA1a cells were cultured in Dulbecco's Modified Eagle Medium (DMEM) supplemented with 5% bovine serum, 2 mM glutamine and 1 mM non-essential amino acids. MDA-MB231 cells were grown in DMEM supplemented with 5% bovine serum. Cells were routinely maintained in a 5% CO2 incubator at 37° C.
General Procedure for Invasion Assay. MCF 10-CA1a or MDA-MB-231 breast cancer cells were treated with 1 or 5 μM of the compound being tested for 8 h. Cells were removed by trypsinizing and tested for their invasiveness by Boyden-chamber invasion assay. In the in vitro invasion/migration assays, a standard Matrigel-based assay, according to the manufacturer's (Becton-Dickinson) protocol, was used. Rehydrated Matrigel and control inserts were added to Falcon TC companion plates containing human fibronectin (30 μg/ml) as chemoattractant. Cellular suspensions (2×10^4 cells/0.5 ml) were added to individual wells of 24-well chambers (containing either control or Matrigel inserts), and the plates incubated (37° C., 5% CO2) in the presence of the compound being tested or vehicle for an additional 16-18 h. Non-invading or non-migrating cells were removed by scraping the top surfaces of the Matrigel and control inserts, respectively. The invading (or migrating) cells (on the bottom surface) were fixed (3.7% formaldehyde) and stained with Accustain (Sigma). The percent invasion was calculated as mean number of invading cells/the mean number of cells migrating through a control membrane×100.
The in vitro invasion through Matrigel was studied for two human breast cancer lines: MCF-10CA1a, a highly metastatic ER^+ line and MDA-MB-231, an ER^− line. […] At this concentration, SR13179 inhibited invasion of MDA-MB-231 by about 30% (and by 70% at 5 μM). To rule out a cytotoxic effect in the inhibition of invasion, a concurrent cytotoxicity assay was carried out and the number of viable cells was determined by MTT assay. There was less than 5% decrease in MDA-MB-231 cell viability at 5 μM concentration of SR13179 at 22 h. In the same experiment, a motility experiment was conducted, showing that cell migration was inhibited by about 20%.

[3] = test system: MCF-7 (ER+) breast cancer cell line; assay: Growth inhibition assay, MTT, MCF-7 breast cancer cells; assay type: cell-based, human; settings: Homo sapiens
Description: Compounds of the invention were tested for their ability to inhibit growth in two breast cancer cell lines, MCF-7 (ER+) and MDA-MB-231 (ER−).
The growth inhibition assays were conducted using routine methods. Briefly, the cells were seeded in 24-well plates at a density of 2000 cells per well in 200 μL of […] growth medium. To each well was added 10 μL of DMSO containing the dissolved test compound; final DMSO concentration in each well was not more than 0.5%. Each test compound was assayed at concentrations of 0.4, 2, 10, and 50 μM. The plates were incubated for eight days, with the media and test solutions replaced every third day. On Day 8, the viable cells were measured by the MTT assay, as described in Mosmann et al. (1983), “Rapid Colorimetric Assay for Cellular Growth and Survival: Application to Proliferation and Cytotoxicity,” J. Immunol. Method. 65:55-63. The optical density at 575 nm of each test well was measured and compared to that for control wells, and the data used to calculate the percentage of growth inhibition at different concentrations. The IC50 value (the concentration of growth inhibitor that results in 50% growth inhibition of the cells in culture relative to control cells not exposed to any growth inhibitor) was determined by plotting dose-response curves.
The calculated IC50 values are set forth in Table 1, with the results representing the average of at least two experiments conducted for each compound at each of the four concentrations.

[4] = test system: LNCaP human prostate cancer cells; assay: Cell cycle arrest in LNCaP cells (Hoechst 33258 nuclear morphology, flow cytometry); assay type: cell-based
Description: To determine whether SR 13179 exerts its antiproliferative activity by perturbing the cell cycle, the nuclear morphology of LNCaP cells was visualized after treatment with SR 13179. The cells were exposed to the compound for 28 h at concentrations of either 0.5 μM or 1 μM and then stained with the nuclear dye Hoechst 33258.
To investigate the mitotic arrest in more detail, flow cytometry was used to study the effect of SR 13179 on cell cycle progression for LNCaP cells.

[5] = 12.5, 25 and 50 mg/kg i.p. once a day

Question: With COc1cc(C2CC(O)c3ccc4ccccc4c3O2)cc(OC)c1OC (stereo not shown) [SR 13179, 2-(3,4,5-trimethoxyphenyl)-3,4-dihydro-2H-benzo[h]chromen-4-ol] as the molecule, how does the tumor growth ([1]; 12.5 mg/kg/day i.p., 14 days) read?
Answer: complete suppression of tumor growth

Question: What about the “tumor size compared to the size at Day 0” value ([1]; 50 mg/kg/day i.p., 14 days) of the same molecule?
Answer: slight regression in tumor size

Question: And the “body weights of the treated mice” value [1, 5]?
Answer: unaffected

Question: What about the overt toxicity [1, 5] of the same molecule?
Answer: no overt toxicity was observed

Question: What about the “Invasion (%)” value ([2]; 1 μM) of the same molecule?
Answer: 60%

Question: And the “Invasion (%)” value ([2]; 5 μM)?
Answer: 25%

Question: And the inhibition at 1 µM ([2]; Homo sapiens, MDA-MB-231, 1 μM)?
Answer: ~30%

Question: What about the inhibition at 5 µM ([2]; Homo sapiens, MDA-MB-231, 5 μM) of the same molecule?
Answer: 70%

Question: And the “inhibition of cell migration (motility experiment)” value ([2]; same experiment as the cytotoxicity assay)?
Answer: about 20%

Question: And the IC50 ([3]; MCF7, 192 h, MTT assay, eight days, average of at least two experiments, read-out: GROWTH INHIBITION (IC50) MCF-7 (ER+))?
Answer: 1.41 µM

Question: And the IC50 ([3]; MCF7, Table 2, method of Example 16, read-out: IC50, growth inhibition, MCF-7 (ER+))?
Answer: 1.14 µM

Question: And the “nuclear morphology (Hoechst 33258)” value ([4]; 0.5 μM or 1 μM, 28 h)?
Answer: chromatin condensation characteristic of a prometaphase arrest

Question: And the “G2/M fraction compared with the control” value ([4]; 2 μM and greater, 24 h, flow cytometry)?
Answer: two-fold increase
